Data: the supplement of paper PMC5908809

What was measured:
[1] = system: normal NK cells expanded with K562-aAPC; assay: percent inhibition of viability; higher = more inhibition; conditions: 72 h, IL-2 2.5 ng/mL
Experimental: (§1)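 Drug sensitivity and resistance testing on K562-aAPC-expanded normal NK cells: 5 concentrations (10-fold steps over a 10,000-fold range), 72 h at 37 °C, viability by CellTiter-Glo normalised to DMSO and benzethonium chloride controls; DSS from the fitted curve.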

DERL-7 (IL-2 2.5 ng/mL) [2] = assay: as above; conditions: 72 h
IMC-1 (IL-2 20 ng/mL) [3] = assay: as above; conditions: 72 h
KAI3 (IL-2 2.5 ng/mL) [4] = assay: as above; conditions: 72 h
KHYG-1 (IL-2 2.5 ng/mL) [5] = assay: as above; conditions: 72 h
NK-92 (IL-2 2.5 ng/mL) [6] = assay: as above; conditions: 72 h
NK-YS (IL-2 2.5 ng/mL) [7] = assay: as above; conditions: 72 h
NKL (IL-2 2.5 ng/mL) [8] = assay: as above; conditions: 72 h
SNK-6 (IL-2 2.5 ng/mL) [9] = assay: as above; conditions: 72 h
YT (IL-2 2.5 ng/mL) [10] = assay: as above; conditions: 72 h
[11] = system: normal primary NK cells, pool 1 (3 donors) (IL-2 2.5 ng/mL); assay: as above; conditions: 72 h
[12] = system: normal primary NK cells, pool 1 (3 donors), resting (IL-2 0 ng/mL); assay: as above; conditions: 72 h
[13] = system: normal primary NK cells, pool 2 (3 donors) (IL-2 2.5 ng/mL); assay: as above; conditions: 72 h
[14] = system: normal primary NK cells, pool 3 (3 donors) (IL-2 2.5 ng/mL); assay: as above; conditions: 72 h
[15] = system: normal NK cells expanded with K562-aAPC; assay: drug sensitivity score (DSS) (DSS units); higher = more sensitive; extreme values may be limits of the assay; conditions: 72 h; IL-2 2.5 ng/mL
Experimental: as §1

DERL-7 (IL-2 2.5 ng/mL) [16] = assay: as above; conditions: 72 h
IMC-1 (IL-2 20 ng/mL) [17] = assay: as above; conditions: 72 h
KAI3 (IL-2 2.5 ng/mL) [18] = assay: as above; conditions: 72 h
KHYG-1 (IL-2 2.5 ng/mL) [19] = assay: as above; conditions: 72 h
NK-92 (IL-2 2.5 ng/mL) [20] = assay: as above; conditions: 72 h
NK-YS (IL-2 2.5 ng/mL) [21] = assay: as above; conditions: 72 h
NKL (IL-2 2.5 ng/mL) [22] = assay: as above; conditions: 72 h
SNK-6 (IL-2 2.5 ng/mL) [23] = assay: as above; conditions: 72 h
YT (IL-2 2.5 ng/mL) [24] = assay: as above; conditions: 72 h
[25] = system: normal primary NK cells, pool 1 (3 donors) (IL-2 2.5 ng/mL); assay: as above; conditions: 72 h
[26] = system: normal primary NK cells, pool 1 (3 donors), resting (IL-2 0 ng/mL); assay: as above; conditions: 72 h
[27] = system: normal primary NK cells, pool 2 (3 donors) (IL-2 2.5 ng/mL); assay: as above; conditions: 72 h
[28] = system: normal primary NK cells, pool 3 (3 donors) (IL-2 2.5 ng/mL); assay: as above; conditions: 72 h

Oc1c2ccccc2c2c3c(cccc13)N=N2 (max concentration tested 100000 nM)
percent inhibition of viability [%]
Conditions | 10 nM | 100 nM | 1000 nM | 10000 nM | 100000 nM
DERL-7 (IL-2 2.5 ng/mL) [2] | 0.02 | 10.7 | 21.6 | 53.3 | 72.7
IMC-1 (IL-2 20 ng/mL) [3] | -9.76 | -5.66 | -7.38 | 9.45 | 15.4
KAI3 (IL-2 2.5 ng/mL) [4] | -1.06 | -0.37 | -1.44 | 36 | 77.2
KHYG-1 (IL-2 2.5 ng/mL) [5] | -9.58 | -4.25 | -1.77 | 41.2 | 79.2
NK-92 (IL-2 2.5 ng/mL) [6] | 5.13 | 5.87 | 15.3 | 43.2 | 71.4
NK-YS (IL-2 2.5 ng/mL) [7] | -9.38 | -3.05 | -7.51 | 20.3 | 61
NKL (IL-2 2.5 ng/mL) [8] | -5.72 | 1.11 | 17.1 | 43.4 | 71.7
SNK-6 (IL-2 2.5 ng/mL) [9] | -6.71 | -15.7 | -11.4 | 25.4 | 66.8
YT (IL-2 2.5 ng/mL) [10] | -6.35 | -2.65 | -2.78 | 17.4 | 42.7
[1] | -5.86 | -5.73 | -0.03 | 16.2 | 46.2
[11] | 1.28 | 6.88 | 11.3 | 22.6 | 57.5
[12] | 10.6 | 13.4 | 3.37 | 16 | 14.5
[13] | -8.33 | -0.93 | 6.2 | 28.3 | 40.2
[14] | -1.96 | 3 | 10.6 | 5.71 | 43.7

Conditions | drug sensitivity score
DERL-7 (IL-2 2.5 ng/mL) [16] | 12.8
IMC-1 (IL-2 20 ng/mL) [17] | 0.95
KAI3 (IL-2 2.5 ng/mL) [18] | 8.9
KHYG-1 (IL-2 2.5 ng/mL) [19] | 9.5
NK-92 (IL-2 2.5 ng/mL) [20] | 10.2
NK-YS (IL-2 2.5 ng/mL) [21] | 6.25
NKL (IL-2 2.5 ng/mL) [22] | 10.3
SNK-6 (IL-2 2.5 ng/mL) [23] | 7.17
YT (IL-2 2.5 ng/mL) [24] | 4.53
[15] | 4.7
[25] | 5.75
[26] | 0
[27] | 5.61
[28] | 3.2
